These are literature values, as cited in patent publication US8920373B2, “Reduced volume formulation of glatiramer acetate and methods of administration” (Teva Pharmaceutical Industries, Ltd., priority 2009, dated 2014).

This data set relates to RRMS subjects.

Consider glatiramer acetate, for which, under “human, in vivo”, the “Patients reporting Immediate Post-Injection Reaction (IPIR)” value is on record as 31% and the “Proportion of patients reporting injection-site reactions at least once” value is 70%. Moreover, under “largest controlled study”, the “Reduction of relapse rate versus placebo” value was 32% and the Relapse rate is on record as 1.34. Also, the “Median cumulative number of Gd-enhancing lesions” value (over 9 months of treatment) is recorded as 11 lesions.
